Experimental data from patent publication US20090214439A1, “Fluorinated Carbohydrates and Their Use in Tumor Visualization, Tissue Engineering, and Cancer Chemotherapy” (Trustees of Tufts College, priority 2006, published 2009).

Experiments:
[1] = tested on: cell surfaces (Jurkat, HeLa and HL-60 cells); test: Cell surface expression of sialic acids, DMB labeling with fluorescence HPLC (cell line not stated); type: cell-based; settings: 200 μM typical, 900 μM maximum, 3 days
Source text: Cell Surface Expression of Fluorinated Sialic Acids. […] These experiments assay the overall action of multiple biosynthetic steps downstream of sialic acid, namely activation, processing and attachment to proteins and lipids and finally successful trafficking to the membrane. As mentioned above, six derivatives of mannosamine have been prepared and tested. In order to bypass the most stringent step in sialic acid biosynthetic pathway (ManNAc 6-kinase), fluorinated sialic acids were also prepared for direct use in feeding experiments. Sialic acids were synthesized as described above by enzymatic conversion of mannosamines to the corresponding sialic acids. […]
To visualize and quantify the sialic acid incorporation on cell surfaces, 1,2-diamino-4,5-methylenedioxybenzene (DMB) was used as a fluorogenic reagent for labeling α-keto acids (FIG. 4). […] The samples were analyzed by HPLC using a fluorescence detector. The retention times (by comparison to an authentic sample) provide information about the identity, LC ESI-MS unambiguously confirms the molecular structure, and integration of the peaks gives quantitative information on the relative amounts of membrane-derived sialic acids. […]

Jurkat cells = test: Cell surface expression of sialic acids, DMB labeling with fluorescence HPLC; type: cell-based; settings: DMB conjugates of membrane fraction
Source text: (§1) Cell Surface Expression of Fluorinated Sialic Acids. […] These experiments assay the overall action of multiple biosynthetic steps downstream of sialic acid, namely activation, processing and attachment to proteins and lipids and finally successful trafficking to the membrane. As mentioned above, six derivatives of mannosamine have been prepared and tested. In order to bypass the most stringent step in sialic acid biosynthetic pathway (ManNAc 6-kinase), fluorinated sialic acids were also prepared for direct use in feeding experiments. Sialic acids were synthesized as described above by enzymatic conversion of mannosamines to the corresponding sialic acids. Fluorine containing sialic acids were fed to Jurkat, HeLa and HL-60 cells in the peracetylated, methyl ester form since Reutter and Bertozzi have independently shown that exogenous addition of sialic acids in this form results in efficient incorporation of a wide range of derivatives. The degree of fluorination on the N-acyl chain was varied from a single terminal trifluoromethyl group to a —C11F17 group.
(§2) To visualize and quantify the sialic acid incorporation on cell surfaces, 1,2-diamino-4,5-methylenedioxybenzene (DMB) was used as a fluorogenic reagent for labeling α-keto acids (FIG. 4). [Hara, S.; Yamaguchi, M.; Takemori, Y.; Furuhata, K.; Ogura, H.; Nakamura, M. “Determination of Mono-O-Acetylated N-Acetylneuraminic Acids in Human and Rat Sera by Fluorometric High-Performance Liquid-Chromatography” Anal. Biochem. 1989, 179, 162-6.] Briefly, the membrane fraction was obtained after incubation with a given compound (200 μM typical, 900 μM maximum) for 3 days. […] The samples were analyzed by HPLC using a fluorescence detector. The retention times (by comparison to an authentic sample) provide information about the identity, LC ESI-MS unambiguously confirms the molecular structure, and integration of the peaks gives quantitative information on the relative amounts of membrane-derived sialic acids.

[2] = tested on: HL60-I cells (deficient in UDP-GlcNAc 2-epimerase); test: Replacement of Neu5Ac with unnatural sialic acids in hyposialylated cells; type: cell-based
Procedure: (§3) To visualize and quantify the sialic acid incorporation on cell surfaces, 1,2-diamino-4,5-methylenedioxybenzene (DMB) was used as a fluorogenic reagent for labeling α-keto acids (FIG. 4). [Hara, S.; Yamaguchi, M.; Takemori, Y.; Furuhata, K.; Ogura, H.; Nakamura, M. “Determination of Mono-O-Acetylated N-Acetylneuraminic Acids in Human and Rat Sera by Fluorometric High-Performance Liquid-Chromatography” Anal. Biochem. 1989, 179, 162-6.] Briefly, the membrane fraction was obtained after incubation with a given compound (200 μM typical, 900 μM maximum) for 3 days. The membrane pellet was then hydrolyzed by use of 2 M AcOH at 80° C. and then allowed them to react with DMB to yield the corresponding quinoxalinone derivatives. The samples were analyzed by HPLC using a fluorescence detector. The retention times (by comparison to an authentic sample) provide information about the identity, LC ESI-MS unambiguously confirms the molecular structure, and integration of the peaks gives quantitative information on the relative amounts of membrane-derived sialic acids.
Replacement of Neu5Ac with Unnatural Sialic Acids in Hyposialylated Cells. Cell lines HL60-I and BJA-B K20, variants respectively of the parent HL60 and human B-cell lymphoma (BJA-B), are deficient in UDP-GlcNAc 2-epimerase and show a global suppression of sialylation of glycoconjugates, including expressing mostly unsialylated Lewis-X. [Keppler, 0. T.; Hinderlich, S.; Langner, J.; Schwartz-Albiez, R.; Reutter, W.; Pawlita, M. “UDP-GlcNAc 2-epimerase: A regulator of cell surface sialylation” Science 1999, 284, 1372-6.] Using these hyposialylated cell lines incorporation of fluorinated precursors was investigated and the overall percentage of sialic acids on cell surfaces that are fluorinated was assessed. Both HL60-I and BJA-B K20 cell lines served as metabolic hosts for fluorinated sialic acids 5-N-trifluoropropyl-Neu (5e) and 5-N-trifluorobutyl-Neu (5g) (FIG. 8). […] In contrast, untreated cells only contained Neu5Ac. […]

[3] = tested on: BJA-B K20 cells (deficient in UDP-GlcNAc 2-epimerase); test: as above; type: cell-based, human
Procedure: as §3
Replacement of Neu5Ac with Unnatural Sialic Acids in Hyposialylated Cells. […] Using these hyposialylated cell lines incorporation of fluorinated precursors was investigated and the overall percentage of sialic acids on cell surfaces that are fluorinated was assessed. […]

HL60-II cells = test: Incorporation of unnatural sialic acids in highly sialylated cells; type: cell-based
Procedure: as §3
(§4) Roughly 75% of the total sialic acid (using substrate 5g) on the cell surface was fluorinated using these cell lines.

[4] = tested on: K88 (a sub clone of BJA-B); test: as above; type: cell-based, human
Procedure: as §3, §4

[5] = tested on: HL60 cells adhering to fibronectin; test: Static adhesion of labeled cells to fibronectin-coated plates; type: cell-based; settings: HL60 cells incubated 72 h with 200 μM compound; PMA or thapsigargin stimulation; 1 hour adhesion
Procedure: FIG. 9 depicts (a) adhesion of HL60 cells to plates coated with fibronectin in the presence of thapsigargin (Tg). The cells were incubated with compounds for 72 hours, washed with PBS and then allowed to adhere to plates. After 1 hr, unattached cells were removed by rinsing with PBS and then the number of cells quantified by addition of calcein-AM and fluorescence counting. (b) Similar assay as in (a) but with compounds 4a and 4d (data in (b) is taken from Horstkorte, R.; Rau, K.; Laabs, S.; Danker, K.; Reutter, W. “Biochemical engineering of the N-acyl side chain of sialic acid leads to increased calcium influx from intracellular compartments and promotes differentiation of HL60 cells” FEBS Lett. 2004, 571, 99-102).
Adhesion of Labeled Cells on Collagen and Fibronectin. The ability of cells labeled with fluorinated carbohydrates to adhere to fibronectin and collagen was also investigated. […] To quantify adhesion, 96-well plates were coated with fibronectin or collagen (10 μg/mL in PBS) for 16 hours at 4° C. followed by treatment with 1% BSA for 4 hours to block nonspecific adhesion sites. […] Unattached cells were washed away by rinsing with PBS and the cells were quantified by addition of the fluorogenic esterase substrate calcein-AM and followed by measurement of emission at 520 nm in a microtiter fluorescence plate reader. […]

HeLa cells = test: Cell surface expression of sialic acids, DMB labeling with fluorescence HPLC; type: cell-based
Source text: as §1, §2

[6] = tested on: HL60 cells adhering to fibronectin; settings: HL60 cells cultivated in the presence of the compound; literature data (Villavicencio-Lorini 2002; Horstkorte 2004); cited from earlier work

Row | Compound | incorporation on cell surfaces as sialoglycoconjugates [1] | cell surface incorporation / expression (Jurkat cells) | incorporation on the cell surface by LC ESI-MS [2] | incorporation on the cell surface by LC ESI-MS [3] | incorporation of the fluorinated sialic acid (HL60-II cells) | incorporation of the fluorinated sialic acid [4] | adhesion to fibronectin compared to untreated cells [5] | total sialic acid on the cell surface replaced (HeLa cells) | cell surface incorporation / expression (HeLa cells; DMB conjugates of membrane fraction) | cell surface sialylation coming from exogenously added compound ([2]; DMB labeling and fluorescence HPLC) | total sialic acid on the cell surface that was fluorinated (HL60-II cells) | total sialic acid on the cell surface that was fluorinated [4] | decrease of adhesion to fibronectin compared to untreated cells [5] | increase of adhesion to fibronectin [6]
1 | O=C(CC(F)(F)F)N[C@H]1[C@H]([C@H](O)[C@H](O)CO)OC(O)(C(=O)O)C[C@@H]1O (stereo partly shown) [Compound 5e, 5-N-trifluoropropyl-Neu] | escorted and appended to cellular surfaces | efficiently incorporated | unambiguously confirmed | unambiguously confirmed | readily incorporated | readily incorporated | decreased |  |  |  |  |  |  | 
2 | 5-N-trifluorobutyl-Neu [Compound 5g] | escorted and appended to cellular surfaces |  | unambiguously confirmed | unambiguously confirmed | readily incorporated | readily incorporated |  | 75% | Cell surface expression of 5g | ~75% | Roughly 75% | Roughly 75% | ~70% | 
3 | CCC(=O)N[C@@H]1C(O)O[C@H](CO)[C@@H](O)[C@@H]1O (stereo partly shown) [Compound 4d, N-propanoyl-mannosamine] |  |  |  |  |  |  |  |  |  |  |  |  |  | more than 130%
